Experimental data as given in patent publication US20220193063A1, “METABOLITES OF GLP1R AGONISTS” (Pfizer Inc., priority 2020, published 2022).

Key:
[1] = system: male cryopreserved cynomolgus monkey hepatocytes; experiment: In vitro metabolism of Compound 1 in monkey cryopreserved hepatocytes; type: in vitro ADME; conditions: HPLC/UV/MS; for metabolite of Compound 1 observed in monkey hepatocyte incubations: 10 μM Compound 1, 7.5×10^5 cells/mL, 1 and 4 hrs composite sample; as to Relative abundance of metabolite of Compound 1, Monkey: key: ND Not detected; trace: Trace: observed by HPLC/MS measurements only; + Minor as assessed by HPLC/UV measurements; ++ moderate as assessed by HPLC/UV measurements; +++ major as assessed by HPLC/UV measurements; * m/z 593 and m/z 505 co-eluted in rabbit hepatocytes; ** m/z 591c and m/z 593 were merged in human hepatocytes and Hepatopack; *** m/z 607 and m/z 751b were merged in rabbit hepatocytes
Experimental: (§1) Male CD-1 mouse hepatocytes (lot YHL), male Wistar-Han rat hepatocytes (Celsis; product number: M000065; lot: SLA), female New Zealand rabbit hepatocytes (lot 1510147), male cryopreserved cynomolgus monkey hepatocytes (Celsis; product number: M00305; lot: DNB) and mixed-gender cryopreserved human hepatocytes (Bioreclamation; product number: S01988; lot: DCM) were obtained for the hepatocyte in-vitro assessments.
(§2) At time 0 hrs 550 μL aliquots were removed from incubations and quenched with 5 volumes of ACN containing 0.1% formic acid. At 1 and 4 hrs, 275 μL aliquots were removed and quenched as above; these were combined in the same tube to prepare a composite sample. For all hepatocyte experiments, samples were processed by centrifugation at 1900×g for 5 minutes, and then the supernatant was transferred to clean glass tubes and evaporated to dryness under a stream of N2 using a Turbovap at 37° C. Sample residues were reconstituted in mobile phase prior to analysis by HPLC/UV/MS^n.
(§3) Samples were analyzed by HPLC/UV/MS^n using a Thermo Orbitrap Elite mass spectrometer in conjunction with a Thermo Open Accela UHPLC system. A 3.0×150 mm, 2.5 μm Acquity CSH C18 HPLC column (Waters) was heated to 45° C. for separation of analytes. The mobile phase was a gradient of A): water containing 0.1% formic acid, and B): acetonitrile. The flow rate was 450 μL/min, and the following gradient program was utilized: […]
(§4) UV absorbance was monitored with a photo-diode array detector from 220-450 nm. The mass spectrometer was operated in positive-ion mode with a HESI ion source at a potential of 3.0 kV, and capillary and source heater temperatures of 380 and 300° C., respectively. Sheath, auxiliary, and sweep gas flows were set to 45, 10, and 2 units, respectively. Full scan mass spectra were acquired over the range 120-1200 m/z at a resolving power of 30,000 (specified at m/z 400). Data-dependent MS^n spectra were acquired in an automated fashion at 15,000 resolving power using CID and HCD fragmentation with normalized collision energy settings of 28 and 65 V, respectively.
(§5) Metabolites were characterized by comparisons of mass spectral fragmentation patterns with that of a Compound 1 standard. All HPLC/UV/MS^n data were processed using Xcalibur v. 2.2, and integrated UV peak areas were subjected to weighted UV binning procedures utilizing an Excel template.

[2] = system: Male CD-1 mouse hepatocytes; experiment: In vitro metabolism of Compound 1 in mouse cryopreserved hepatocytes; type: in vitro ADME; conditions: HPLC/UV/MS; for metabolite of Compound 1 observed in mouse hepatocyte incubations: 10 μM Compound 1, 7.5×10^5 cells/mL, 1 and 4 hrs composite sample; as to Relative abundance of metabolite of Compound 1, Mouse: key: ND Not detected; trace: Trace: observed by HPLC/MS measurements only; + Minor as assessed by HPLC/UV measurements; ++ moderate as assessed by HPLC/UV measurements; +++ major as assessed by HPLC/UV measurements; * m/z 593 and m/z 505 co-eluted in rabbit hepatocytes; ** m/z 591c and m/z 593 were merged in human hepatocytes and Hepatopack; *** m/z 607 and m/z 751b were merged in rabbit hepatocytes
Experimental: as §1, §2, §3, §4, §5

[3] = system: female New Zealand rabbit hepatocytes; experiment: In vitro metabolism of Compound 1 in rabbit cryopreserved hepatocytes; type: in vitro ADME; conditions: 10 μM Compound 1, 7.5×10^5 cells/mL, 1 and 4 hrs composite sample, HPLC/UV/MS
Experimental: as §1, §2, §3, §4, §5

[4] = system: male Wistar-Han rat hepatocytes; experiment: In vitro metabolism of Compound 1 in rat cryopreserved hepatocytes; type: in vitro ADME; conditions: HPLC/UV/MS; for metabolite of Compound 1 observed in rat hepatocyte incubations: 10 μM Compound 1, 7.5×10^5 cells/mL, 1 and 4 hrs composite sample; for Relative abundance of metabolite of Compound 1, Rat: rat cryopreserved hepatocytes; as to Relative abundance of metabolite of Compound 1, Rat: key: ND Not detected; trace: Trace: observed by HPLC/MS measurements only; + Minor as assessed by HPLC/UV measurements; ++ moderate as assessed by HPLC/UV measurements; +++ major as assessed by HPLC/UV measurements; * m/z 593 and m/z 505 co-eluted in rabbit hepatocytes; ** m/z 591c and m/z 593 were merged in human hepatocytes and Hepatopack; *** m/z 607 and m/z 751b were merged in rabbit hepatocytes
Experimental: as §1, §2, §3, §4, §5

[5] = system: mixed-gender cryopreserved human hepatocytes; experiment: In vitro metabolism of Compound 1 in human cryopreserved hepatocytes; type: in vitro ADME; conditions: HPLC/UV/MS; for metabolite of Compound 1 observed in human hepatocyte incubations: 10 μM Compound 1, 7.5×10^5 cells/mL, 1 and 4 hrs composite sample; as to Relative abundance of metabolite of Compound 1, Human: key: ND Not detected; trace: Trace: observed by HPLC/MS measurements only; + Minor as assessed by HPLC/UV measurements; ++ moderate as assessed by HPLC/UV measurements; +++ major as assessed by HPLC/UV measurements; * m/z 593 and m/z 505 co-eluted in rabbit hepatocytes; ** m/z 591c and m/z 593 were merged in human hepatocytes and Hepatopack; *** m/z 607 and m/z 751b were merged in rabbit hepatocytes
Experimental: as §1, §2, §3, §4, §5

[6] = Circulating metabolites of Compound 1 in rat plasma following a 1.0 mg/kg IV bolus dose; type: in vivo; conditions: 1.0 mg/kg IV bolus dose of Compound 1, pooled plasma 0.033-24 hrs, male rats
Experimental: (§6) Plasma and bile samples were obtained from a bile duct cannulated rat experiment (Study PK-0111) in which a 1.0 mg/kg IV bolus dose was administered to fed male rats (N=3). No control plasma was available from this experiment.
Clin Pharmacol Ther 1981; 29(3):408-13]. The entire volume of each replicate Hamilton pool was combined to create a single pooled sample (576 μL) for analysis.
(§7) Pooled plasma and bile samples were extracted with ACN containing 0.1% formic acid, and after centrifugation at 1900×g, the supernatant was transferred to clean tubes and evaporated under N2 in a Turbovap set at 37° C. Residues were reconstituted in mobile phase (5:95 v:v ACN:0.1% aqueous formic acid) prior to analysis by HPLC/UV/MS^n.
as §3, §4, §5

[7] = Metabolites of Compound 1 in rat bile following a 1.0 mg/kg IV bolus dose (bile duct cannulated rat); type: in vivo; conditions: 1.0 mg/kg IV bolus dose of Compound 1, pooled bile 0-24 hrs, bile duct cannulated male rats
Experimental: as §6
Bile samples (0-3, 3-7, and 7-24 hrs) from individual animals were pooled in proportion to the amount collect in each interval. Then 0.5 mL of each individual pool was combined to prepare a composite sample for analysis.
as §7, §3, §4, §5

Row | SMILES | metabolite of Compound 1 observed in monkey hepatocyte incubations [1] | metabolite of Compound 1 observed in mouse hepatocyte incubations [2] | metabolite of Compound 1 observed in rabbit hepatocyte incubations [3] | metabolite of Compound 1 observed in rat hepatocyte incubations [4] | metabolite of Compound 1 observed in human hepatocyte incubations [5] | further results
1 | C[C@]1(c2ccc(Cl)cn2)Oc2cccc(C3CC[N+]([O-])(Cc4nc5ccc(C(=O)O)cc5n4C[C@@H]4CCO4)CC3)c2O1 (some centres unmarked) [Metabolite 591d] | observed | observed | observed | observed | observed | –
2 | O=C(O)c1ccc2nc(CN3CCC(c4cccc(O)c4O)CC3)n(C[C@@H]3CCO3)c2c1 [Metabolite 438] | – | – | – | – | – | Relative abundance of metabolite of Compound 1, Monkey ([1]; monkey cryopreserved hepatocytes): trace; Relative abundance of metabolite of Compound 1, Rat [4]: trace; Relative abundance of metabolite of Compound 1, Human ([5]; human cryopreserved hepatocytes): trace
3 | C[C@]1(c2ccc(Cl)cn2)Oc2cccc(C3CCN(Cc4nc5ccc(C(=O)O)cc5n4CC(O)CCO)CC3)c2O1 (stereo in doubt) [Metabolite 593] | observed | observed | observed | observed | observed | –
4 | C[C@]1(c2ccc(Cl)cn2)Oc2cccc(C3CCN(Cc4nc5ccc(C(=O)O)cc5n4C[C@@H]4CCO4)CC3)c2O1 [Compound 1, 2-((4-((S)-2-(5-chloropyridin-2-yl)-2-methylbenzo[d][1,3]dioxol-4-yl)piperidin-1-yl)methyl)-1-(((S)-oxetan-2-yl)methyl)-1H-benzo[d]imidazole-6-carboxylic acid] | – | – | – | – | – | detected in rat plasma [6]: detected; detected in rat bile [7]: detected
5 | C[C@]1(c2ccc(Cl)cn2)Oc2cccc(C3CCN(Cc4nc5ccc(C(=O)O)cc5[nH]4)CC3)c2O1 [Metabolite 505] | – | – | – | – | – | Relative abundance of metabolite of Compound 1, Mouse ([2]; mouse cryopreserved hepatocytes): trace; Relative abundance of metabolite of Compound 1, Rat [4]: trace
6 | O=C(O)c1ccc2nc(CN3CCC(c4cccc(O)c4O)CC3)n(C[C@@H]3CCO3)c2c1 [Metabolite 438, (S)-2-((4-(2,3-dihydroxyphenyl)piperidin-1-yl)methyl)-1-(oxetan-2-ylmethyl)-1H-benzo[d]imidazole-6-carboxylic acid] | observed as a trace metabolite | – | – | observed as a trace metabolite | observed as a trace metabolite | –
7 | C[C@]1(c2ccc(Cl)cn2)Oc2cccc(C3CCN(Cc4nc5ccc(C(=O)O)cc5[nH]4)CC3)c2O1 [Metabolite 505, (S)-2-((4-(2-(5-chloropyridin-2-yl)-2-methylbenzo[d][1,3]dioxol-4-yl)piperidin-1-yl)methyl)-1H-benzo[d]imidazole-6-carboxylic acid] | – | observed | observed | observed | – | –
